# Laboratory results: publication PMC7238114, “L-Type Amino Acid Transporter 1-Utilizing Prodrugs of Ketoprofen Can Efficiently Reduce Brain Prostaglandin Levels” (Pharmaceutics, 2020)
# System: cyclooxygenase (COX; isoform not resolved, COX1/COX2)
# Experiment: fluorometric COX peroxidase activity assay (Amplex Red) in BV2 cell lysate
# Type: biochemical
row,IC50,SMILES
1,1050 ± 1210 nM,"CC(C(=O)NCCCC[C@H](N)C(=O)O)c1cccc(C(=O)c2ccccc2)c1 (stereo partly drawn) [PD2, pro-drug 2]"
2,2260 ± 1330 nM,"CC(C(=O)NCC[C@H](N)C(=O)O)c1cccc(C(=O)c2ccccc2)c1 (stereo partly drawn) [PD3, pro-drug 3]"

row,SMILES,IC50
1,"CC(C(=O)O)c1cccc(C(=O)c2ccccc2)c1 (stereo not drawn) [KPF, ketoprofen]",850 ± 1180 nM
